Data from PMC12643509, “High-throughput screens identify genotype-specific therapeutics for channelopathies” (JCI Insight, 2025).
Values joined by “and” are separate entries in the source; they are usually repeats but may differ in a detail not shown here. Identical values can stand only once.

Biological target: WT Kv11.1 (Homo sapiens, UniProt Q12809)
Test: Whole-cell patch-clamp electrophysiology, drug in bath solution, WT
Assay type: cell-based
Parameters: expressed in transfected cells; Activation tail currents / Steady-state currents / Time constants of activation (τ): unit not given here
Conditions: for Figure 4D value per cell vs Voltage (mV) / Figure 5E value per cell vs Voltage (mV) / Figure 5F value per cell vs Voltage (mV): individual replicates; for Inactivation time constant / Fast deactivation time constant / Slow deactivation time constant: Evacetrapib (15 µmol/L); for Peak tail current: Evacetrapib 15 µmol/L
Excerpt: Peak stea dy-sta te current was
Tail current was fit with a […]

WT Kv11.1, sequence (Q12809 whole entry): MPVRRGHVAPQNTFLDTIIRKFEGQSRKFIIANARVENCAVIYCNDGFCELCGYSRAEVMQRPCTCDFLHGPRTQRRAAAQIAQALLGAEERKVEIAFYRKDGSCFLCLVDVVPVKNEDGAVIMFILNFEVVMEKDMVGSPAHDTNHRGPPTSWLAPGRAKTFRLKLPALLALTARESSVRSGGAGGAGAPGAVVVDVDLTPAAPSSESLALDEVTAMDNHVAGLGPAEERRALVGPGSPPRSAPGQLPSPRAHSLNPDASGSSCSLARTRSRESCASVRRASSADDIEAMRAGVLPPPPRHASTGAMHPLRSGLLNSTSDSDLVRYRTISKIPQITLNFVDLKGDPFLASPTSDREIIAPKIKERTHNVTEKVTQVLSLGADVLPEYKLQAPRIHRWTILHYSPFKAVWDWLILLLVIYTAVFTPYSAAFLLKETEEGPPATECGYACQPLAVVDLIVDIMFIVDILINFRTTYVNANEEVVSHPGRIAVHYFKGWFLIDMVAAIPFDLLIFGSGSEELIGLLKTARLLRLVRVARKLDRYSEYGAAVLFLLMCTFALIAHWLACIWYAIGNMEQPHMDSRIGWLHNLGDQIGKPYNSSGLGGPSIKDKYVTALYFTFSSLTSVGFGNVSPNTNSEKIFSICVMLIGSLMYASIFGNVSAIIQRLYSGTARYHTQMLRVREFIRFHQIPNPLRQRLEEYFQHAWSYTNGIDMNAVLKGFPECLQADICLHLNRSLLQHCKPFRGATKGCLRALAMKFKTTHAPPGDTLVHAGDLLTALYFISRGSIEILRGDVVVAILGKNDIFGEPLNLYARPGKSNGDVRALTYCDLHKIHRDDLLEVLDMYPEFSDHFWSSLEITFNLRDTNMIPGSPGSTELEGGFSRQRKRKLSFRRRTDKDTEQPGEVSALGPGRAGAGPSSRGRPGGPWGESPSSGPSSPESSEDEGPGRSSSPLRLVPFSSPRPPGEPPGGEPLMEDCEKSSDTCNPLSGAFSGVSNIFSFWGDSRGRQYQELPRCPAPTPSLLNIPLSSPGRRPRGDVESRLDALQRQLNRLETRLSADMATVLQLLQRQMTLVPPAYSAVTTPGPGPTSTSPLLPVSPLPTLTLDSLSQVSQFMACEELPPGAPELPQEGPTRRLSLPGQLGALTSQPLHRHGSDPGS

SMILES: Cc1cc(C)c2c(c1)[C@@H](N(Cc1cc(C(F)(F)F)cc(C(F)(F)F)c1)c1nnn(C)n1)CCCN2C[C@H]1CC[C@H](C(=O)O)CC1 [Evacetrapib, evacetrapib]
- Figure 4D value per cell vs Voltage (mV) (Voltage -30 mV): 15.7269 and 18.6316 and 19.1074 and 18.8344 and 16.9058 and 17.0433 and 17.3545
- Figure 4D value per cell vs Voltage (mV) (Voltage -40 mV): 16.5636 and 18.432 and 19.3043 and 18.0397 and 17.6 and 17.7987 and 17.7833 and 17.6688
- Figure 4D value per cell vs Voltage (mV) (Voltage -50 mV): 17.1571 and 17.6888 and 17.131 and 15.567 and 16.0065 and 16.8291 and 17.2705 and 17.4541
- Figure 5E value per cell vs Voltage (mV) (Voltage -50 mV): 902.031 and 870.108 and 1400.85 and 879.311 and 1017 and 1248.9
- Figure 5F value per cell vs Voltage (mV) (Voltage -50 mV): 6388.9 and 7989.38 and 5622.96
- Figure 4D value per cell vs Voltage (mV) (Voltage -60 mV): 15.2329 and 15.5388 and 14.7818 and 13.5682 and 12.8587 and 15.0819 and 14.9385 and 15.3669
- Figure 5E value per cell vs Voltage (mV) (Voltage -60 mV): 1032.08 and 966.812 and 405
- Figure 5F value per cell vs Voltage (mV) (Voltage -60 mV): 3804.89 and 9449.49 and 8793.8 and 3687.69 and 9196.29
- Figure 4D value per cell vs Voltage (mV) (Voltage -70 mV): 13.1624 and 13.1509 and 12.2005 and 10.7217 and 10.4496 and 12.0627 and 12.9211 and 13.7327
- Figure 5E value per cell vs Voltage (mV) (Voltage -70 mV): 981.118 and 839.618 and 778.428
- Figure 5F value per cell vs Voltage (mV) (Voltage -70 mV): 5126.65 and 3642.53 and 2594.13
- Figure 4D value per cell vs Voltage (mV) (Voltage -90 mV): 8.355 and 8.669 and 7.114 and 6.058 and 6.564 and 7.143 and 9.871 and 9.491
- Figure 5E value per cell vs Voltage (mV) (Voltage -90 mV): 372.839 and 359.851 and 360.592 and 394.825 and 418.114 and 332.621 and 441 and 468.124
- Figure 5F value per cell vs Voltage (mV) (Voltage -90 mV): 3977.04 and 1576.1 and 1475.11 and 1269.7 and 1679.13 and 1263.86 and 1827.67 and 3682.76
- Figure 4D value per cell vs Voltage (mV) (Voltage -100 mV): 5.9805 and 6.106 and 5.3207 and 4.4265 and 4.931 and 4.972 and 6.757 and 6.876
- Figure 5E value per cell vs Voltage (mV) (Voltage -100 mV): 366.452 and 329.996 and 269.807 and 269.273 and 487.907 and 220.859 and 396.726 and 472.93
- Figure 5F value per cell vs Voltage (mV) (Voltage -100 mV): 2314.55 and 1511.55 and 907.537 and 927.568 and 1874.88 and 839.178 and 1131.37 and 2375.79
- Figure 4D value per cell vs Voltage (mV) (Voltage -110 mV): 4.757 and 4.592 and 3.934 and 3.367 and 4.027 and 3.635 and 4.594 and 4.969
- Figure 5E value per cell vs Voltage (mV) (Voltage -110 mV): 253.98 and 258.663 and 186.827 and 175.481 and 304.962 and 138.114 and 283.639 and 296.398
- Figure 5F value per cell vs Voltage (mV) (Voltage -110 mV): 1302.55 and 1153.11 and 698.663 and 755.178 and 1277.44 and 611.635 and 865.285 and 1384.34
- Figure 4D value per cell vs Voltage (mV) (Voltage -120 mV): 3.611 and 3.4981 and 2.97 and 2.532 and 3.293 and 2.583 and 3.34 and 3.894
- Figure 5E value per cell vs Voltage (mV) (Voltage -120 mV): 244.589 and 219.981 and 132.908 and 108.36 and 189.369 and 89.3521 and 190.069 and 167.699
- Figure 5F value per cell vs Voltage (mV) (Voltage -120 mV): 3324.93 and 1104 and 582.988 and 644.385 and 999.7 and 579.372 and 805.065 and 656.376
- Inactivation time constant (Voltage step 0, WT): 11.1 ± 0.6 ms
- Inactivation time constant (Voltage step 10, WT): 8.5 ± 0.3 ms
- Inactivation time constant (Voltage step 20, WT): 6.3 ± 0.2 ms
- Inactivation time constant (Voltage step 30, WT): 4.6 ± 0.2 ms
- Inactivation time constant (Voltage step 40, WT): 3.4 ± 0.2 ms
- Inactivation time constant (Voltage step 50, WT): 2.6 ± 0.2 ms
- Inactivation time constant (Voltage step 60, WT): 2.1 ± 0.1 ms
- Inactivation time constant (Voltage step 70, WT): 1.6 ± 0.1 ms
- Peak tail current (Voltage step (mV) 0, WT, mean±SD): 66.0±31.5 pA/pF
- Peak tail current (Voltage step (mV) 10, WT, mean±SD): 53.8±28.6 pA/pF
- Peak tail current (Voltage step (mV) 20, WT, mean±SD): 43.6±25.2 pA/pF
- Peak tail current (Voltage step (mV) 30, WT, mean±SD): 34.5±20.7 pA/pF
- Peak tail current (Voltage step (mV) 40, WT, mean±SD): 28.0±16.9 pA/pF
- Peak tail current (Voltage step (mV) -10, WT, mean±SD): 78.0±33.4 pA/pF
- Peak tail current (Voltage step (mV) -20, WT, mean±SD): 89.2±35.1 pA/pF
- Peak tail current (Voltage step (mV) -30, WT, mean±SD): 95.9±34.9 pA/pF
- Peak tail current (Voltage step (mV) -40, WT, mean±SD): 95.8±33.5 pA/pF
- Peak tail current (Voltage step (mV) -50, WT, mean±SD): 86.7±30.0 pA/pF
- Peak tail current (Voltage step (mV) -60, WT, mean±SD): 68.2±25.6 pA/pF
- Peak tail current (Voltage step (mV) -70, WT, mean±SD): 41.5±21.4 pA/pF
- Peak tail current (Voltage step (mV) -80, WT, mean±SD): 7.2±20.3 pA/pF
- Peak tail current (Voltage step (mV) -90, WT, mean±SD): -32.8±24.4 pA/pF
- Peak tail current (Voltage step (mV) -100, WT, mean±SD): -76.7±33.7 pA/pF
- Peak tail current (Voltage step (mV) -110, WT, mean±SD): -125.2±46.2 pA/pF
- Peak tail current (Voltage step (mV) -120, WT, mean±SD): -176.7±61.8 pA/pF
- Inactivation time constant (Voltage step -10, WT): 13.6 ± 0.7 ms
- Inactivation time constant (Voltage step -20, WT): 15.5 ± 0.9 ms
- Fast deactivation time constant (Voltage step -60, WT): 801.3 ± 344.8 ms
- Slow deactivation time constant (Voltage step -60, WT): 6986.4 ± 2967.3 ms
- Fast deactivation time constant (Voltage step -70, WT): 866.4 ± 104.0 ms
- Slow deactivation time constant (Voltage step -70, WT): 3787.8 ± 1272.5 ms
- Fast deactivation time constant (Voltage step -90, WT): 393.5 ± 46.0 ms
- Slow deactivation time constant (Voltage step -90, WT): 2093.9 ± 1091.1 ms
- Fast deactivation time constant (Voltage step -100, WT): 351.7 ± 97.5 ms
- Slow deactivation time constant (Voltage step -100, WT): 1485.3 ± 634.8 ms
- Fast deactivation time constant (Voltage step -110, WT): 237.3 ± 62.3 ms
- Slow deactivation time constant (Voltage step -110, WT): 1006.0 ± 306.8 ms
- Fast deactivation time constant (Voltage step -120, WT): 167.8 ± 54.1 ms
- Slow deactivation time constant (Voltage step -120, WT): 1087.1 ± 925.0 ms
- rate of activation (WT): decelerated the rate of activation
- rate of deactivation (WT): slowed the rate of deactivation
- rate of inactivation (WT channels): did not affect the rate of inactivation
- recovery from inactivation (WT channels): slight delay in the reopening from inactivation
- Time constants of activation (τ) (WT, evacetrapib 15 μmol/L, individual cells): 764.055 and 877.888 and 1509 and 938.338 and 764.764 and 413.052
- Activation τ (WT, evacetrapib 15 μmol/L, mean ± SD): 877 ± 360 ms
- Max (voltage dependence of activation) (WT, mean±SD, N=11): 78.2 ± 26.7 pA/pF
- Slope factor (voltage dependence of activation) (WT, mean±SD, N=11): 9.0 ± 1.6
- V1/2 (voltage dependence of activation) (WT, mean±SD, N=11): -4.0 ± 8.4 mV
- WT currents (whole-cell patch-clamp): increases WT currents
